Assay results published in the supplement of paper PMC10307832.

Columns and labels:
Test in all cases: relative viability (nuclei count vs DMSO), 5 days (fraction); higher = more cells survive
FG-4592 + AZD7762 = compound: Cc1nc(C(=O)NCC(=O)O)c(O)c2ccc(Oc3ccccc3)cc12 [FG-4592] + NC(=O)Nc1cc(-c2cccc(F)c2)sc1C(=O)N[C@H]1CCCNC1 [AZD7762] (partner 0.2 µM)
Outline: (§1)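 Relative viability equals treated-well nuclei counts divided by vehicle-well nuclei counts. Counts came from 4× images of lung cancer cell lines grown in 1536-well plates for 5 days after pin-tool dosing on the day after seeding. Dosing used one drug alone or a fixed anchor-drug dose plus five library-drug doses (not always all listed) in √10 steps, and values are medians of duplicate plates.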

IU1-47 + Luminespib = compound: CC1=CC(=C(N1C2=CC=C(C=C2)Cl)C)C(=O)CN3CCCCC3 [IU1-47] + CCNC(=O)c1noc(-c2cc(C(C)C)c(O)cc2O)c1-c1ccc(CN2CCOCC2)cc1 [Luminespib] (partner 0.01 µM)
Outline: as §1

IU1-47 + Pictilisib = compound: CC1=CC(=C(N1C2=CC=C(C=C2)Cl)C)C(=O)CN3CCCCC3 [IU1-47] + CS(=O)(=O)N1CCN(Cc2cc3nc(-c4cccc5[nH]ncc45)nc(N4CCOCC4)c3s2)CC1 [Pictilisib] (partner 1 µM)
Outline: as §1

FG-4592 + OSI-027 = compound: Cc1nc(C(=O)NCC(=O)O)c(O)c2ccc(Oc3ccccc3)cc12 [FG-4592] + COc1cccc2cc(-c3nc([C@H]4CC[C@H](C(=O)O)CC4)n4ncnc(N)c34)[nH]c12 [OSI-027] (partner 0.5 µM)
Outline: as §1

Cell Line	relative viability (FG-4592 + AZD7762; first compound 0.08 µM)	relative viability (FG-4592 + AZD7762; first compound 0.253 µM)	relative viability (FG-4592 + AZD7762; first compound 0.8 µM)	relative viability (FG-4592 + AZD7762; first compound 2.53 µM)	relative viability (FG-4592 + AZD7762; first compound 8 µM)	relative viability (IU1-47 + Luminespib; first compound 0.08 µM)	relative viability (IU1-47 + Luminespib; first compound 0.253 µM)	relative viability (IU1-47 + Luminespib; first compound 0.8 µM)	relative viability (IU1-47 + Luminespib; first compound 2.53 µM)	relative viability (IU1-47 + Luminespib; first compound 8 µM)	relative viability (IU1-47 + Pictilisib; first compound 0.08 µM)	relative viability (IU1-47 + Pictilisib; first compound 0.253 µM)	relative viability (IU1-47 + Pictilisib; first compound 0.8 µM)	relative viability (IU1-47 + Pictilisib; first compound 8 µM)	relative viability (FG-4592 + OSI-027; first compound 0.08 µM)	relative viability (FG-4592 + OSI-027; first compound 0.8 µM)	relative viability (FG-4592 + OSI-027; first compound 2.53 µM)	relative viability (FG-4592 + OSI-027; first compound 8 µM)	relative viability (IU1-47 + Pictilisib; first compound 2.53 µM)	relative viability (FG-4592 + OSI-027; first compound 0.253 µM)
NCI-H2405	0.659	0.642	0.756	0.649	0.592	0.77	0.824	0.739	0.694	0.804	0.552	0.49	0.524	0.431	0.506	0.586	0.518	0.628	–	–
NCI-H3122	0.985	0.922	1.06	1.02	0.952	–	0.08	0.0904	0.108	0.106	0.556	0.615	0.666	0.581	1	0.889	0.768	0.563	0.625	0.899
PC-3 [JPC-3]	0.802	0.762	–	0.726	0.8	0.822	0.695	0.723	0.466	0.603	0.756	0.745	0.852	0.734	0.674	0.79	0.662	0.681	–	0.75
PC-14	0.356	0.341	0.284	0.342	0.282	0.185	0.168	0.186	0.151	0.179	0.896	0.706	0.673	0.437	0.871	0.855	0.747	0.494	0.82	0.655
RERF-LC-KJ	0.913	0.992	0.815	0.883	0.969	1.22	1.3	1.34	1.24	1.39	0.538	0.659	0.41	0.595	0.606	0.565	0.505	0.567	0.489	0.503
